Results reported in publication PMC10606151, “The Functional Characteristics and Soluble Expression of Saffron CsCCD2” (International Journal of Molecular Sciences, 2023).

Assays:
CsCCD2 (TRX-CsCCD2) [1] = molecular target: T1, CsCCD2 (TRX-CsCCD2) (Crocus sativus, UniProt A0A075W695); experiment: in vivo cleavage in β-carotene-producing E. coli, UPLC and UPLC-MS/MS of crocetin dialdehyde; assay type: cell-based; settings: E. coli BL21(DE3) with pACCAR16Δcrt, 0.3 mM IPTG, 16 °C, 24 h; product named crocetin dialdehyde
T1 construct: gene CCD2; CsCCD2 in pET32a, N-terminal TrxA-6xHis-thrombin-S tag fusion, tags kept; synthetic gene with synonymous G1179T; E. coli BL21(DE3) accumulating carotenoids

CsCCD2 (TRX-CsCCD2) [2] = molecular target: T1, CsCCD2 (TRX-CsCCD2); experiment: in vivo cleavage in zeaxanthin-producing E. coli, UPLC and UPLC-MS/MS of crocetin dialdehyde; assay type: cell-based; settings: E. coli BL21(DE3) with pACCAR25ΔcrtX, 0.3 mM IPTG, 16 °C, 24 h; product crocetin dialdehyde

T1 sequence (A0A075W695 entry or part of it): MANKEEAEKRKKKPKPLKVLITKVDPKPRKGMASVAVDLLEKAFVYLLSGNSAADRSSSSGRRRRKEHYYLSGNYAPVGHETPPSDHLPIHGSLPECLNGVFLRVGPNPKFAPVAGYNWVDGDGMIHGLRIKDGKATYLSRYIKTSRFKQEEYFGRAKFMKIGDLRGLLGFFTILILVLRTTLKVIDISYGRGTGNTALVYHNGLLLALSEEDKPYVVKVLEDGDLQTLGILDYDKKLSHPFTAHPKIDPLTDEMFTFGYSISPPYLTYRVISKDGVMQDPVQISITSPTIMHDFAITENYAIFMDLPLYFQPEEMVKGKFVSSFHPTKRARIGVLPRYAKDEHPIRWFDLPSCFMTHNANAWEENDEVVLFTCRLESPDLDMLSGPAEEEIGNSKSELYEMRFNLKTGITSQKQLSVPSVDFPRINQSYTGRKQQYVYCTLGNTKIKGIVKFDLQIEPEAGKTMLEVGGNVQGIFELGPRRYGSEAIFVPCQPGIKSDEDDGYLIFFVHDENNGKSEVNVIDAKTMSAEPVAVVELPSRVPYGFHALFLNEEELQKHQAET

SMILES	in vivo cleavage in β-carotene-producing E. coli, UPLC and UPLC-MS/MS of croceti (CsCCD2 (TRX-CsCCD2) [1])	in vivo cleavage in zeaxanthin-producing E. coli, UPLC and UPLC-MS/MS of croceti (CsCCD2 (TRX-CsCCD2) [2])
CC1=C(/C=C/C(C)=C/C=C/C(C)=C/C=C/C=C(C)/C=C/C=C(C)/C=C/C2=C(C)CCCC2(C)C)C(C)(C)CCC1 [β-carotene]	These results revealed that TRX-CsCCD2 cleaved zeaxanthin, β-carotene, and lycopene	–
CC1=C(/C=C/C(C)=C/C=C/C(C)=C/C=C/C=C(C)/C=C/C=C(C)/C=C/C2=C(C)C[C@@H](O)CC2(C)C)C(C)(C)C[C@H](O)C1 [zeaxanthin]	–	These results revealed that TRX-CsCCD2 cleaved zeaxanthin, β-carotene, and lycopene
